Results: patent publication US9220705B2, “Method of treating colorectal cancer” (priority 2013, dated 2015)

Columns and labels:
SW480 = assay: MTT cytotoxicity assay, 72 h; format: cell-based, human; details: SW480, colon
Description: (§1) Human breast (MCF-7) and colon (HCT-15, DDL1, SW480 and CaCo-2) carcinoma cell lines along with melanoma (A375) were obtained from the American Type Culture Collection (ATCC, Rockville, Md.). A431 are human cervical carcinoma cells kindly provided by Prof. F. Zunino (Molecular Pharmacology Unit, Experimental Oncology and Molecular Medicine, Istituto Nazionale dei Tumori, Milan, Italy). […] G. Marverti (Dept. of Biomedical Science, University of Modena, Italy). LoVo human colon-carcinoma cell line and its multidrug-resistant sublime (LoVo MDR) were kindly provided by Prof F. Maj one (Department of Biology of Padova University, Italy). […] Cell lines were maintained in the logarithmic phase at 37° C. in a 5% carbon dioxide atmosphere using the following culture media containing 10% fetal calf serum (Euroclone, Milan, Italy), antibiotics (50 units mL^−1 penicillin and 50 μg mL^−1 streptomycin), and 2 mM L-glutamine in: i) RPMI-1640 medium (Euroclone) for MCF-7, HCT-15, A431, DLD 1, 2008, and C13* cells; ii) F-12 HAM'S (Sigma Chemical Co.) for LoVo, LoVo MDR, and LoVo-OXP cells; iii) DMEM for A375 and SW 480 cells; and iv) MEM for CaCo-2 cells.
(§2) The growth inhibitory effect towards tumor cell lines was evaluated by means of the MTT (3-(4,5-dimethylthiazol-2-yl)-2,5-diphenyltetrazolium bromide) assay (Alley, M. C., et al., Cancer Res. 1988, 48, 589-601).
(§3) Briefly, depending upon the growth characteristics of the cell line, 3-8×10^3 cells well^−1, were seeded in 96-well microplates in growth medium (100 μL) and then incubated at 37° C. in a 5% carbon dioxide atmosphere. After 24 h, the medium was removed and replaced with a fresh one containing the compound to be studied, at the appropriate concentration, dissolved in 0.9% sodium chloride solution just before use. Triplicate cultures were established for each treatment. After 72 h, each well was treated with […] of a 5 mg mL^−1 MTT saline solution and, after 5 h of incubation, 100 μL of a sodium dodecylsulfate (SDS) solution in 0.01 M HCl were added. After an overnight incubation, the inhibition of cell growth induced by the tested complexes was determined by measuring the absorbance of each well at 570 nm using a BioRad 680 microplate reader. Mean absorbance for each drug dose was expressed as percentage of the control and plotted vs. drug concentration. Dose-response curves were fitted and IC50 values were calculated with four parameter logistic model (4PL).
(§4) Compound 1 was prepared for the first time almost twenty years ago however, until now, it had been tested (both in vitro and in vivo) only in a limited number of tumor cell lines (Hoeschele, J. D., et al., J. Med. Chem. 1994, 37, 2630-2636 and Shamsuddin, S., et al., J. Inorg. Biochem. 1996, 61, 291-301). The Pt(II) and Pt(IV) complexes containing isomeric forms of diaminocyclohexane, [PtCl2(cis-1,4-DACHA](1), [PtCl2(1R,2R-DACH)] (2), [Pt(OXA)(cis-1,4-DACH)] (3), cis,trans,cis-[Pt^IVCl2(OH)2(cis-1,4-DACH)] (4), cis,trans,cis-[Pt^IVCl2(DCA)2(cis-1,4-DACH)] (5), [Pt(CBDCA)(cis-1,4-DACH)] (6), cis,trans,cis-[Pt^IV(OXA)(OH)2(cis-1,4-DACH)] (7), and cis,trans,cis-[Pt^IV(OXA)(DCA)2(cis-1,4-DACH)] (8) were evaluated for their cytotoxic activity towards a panel of human tumor cell lines including cervical (A431), breast (MCF-7), cancers along with a melanoma (A375) and 4 different colon cancer cell lines corresponding to different stages of the disease progression (HCT-15, SW480, CaCo-2, DLD-1). The cytotoxicity was evaluated by means of the MTT test for 72 h treatment with increasing concentrations of the tested compounds.

MCF-7 = assay: MTT cytotoxicity assay, 72 h; format: cell-based, human; details: MCF-7, breast
Description: as §1, §2, §3, §4

HCT-15 = assay: MTT cytotoxicity assay, 72 h; format: cell-based, human; details: HCT-15, colon
Description: as §1, §2, §3, §4

DLD-1 = assay: MTT cytotoxicity assay, 72 h; format: cell-based, human; details: DLD-1, colon
Description: as §1, §2, §3, §4

A431 = assay: MTT cytotoxicity assay, 72 h; format: cell-based, human; details: A431, cervix
Description: as §1, §2, §3, §4

A375 = assay: MTT cytotoxicity assay, 72 h; format: cell-based, human; details: A375, skin
Description: as §1, §2, §3, §4

[1] = tested on: LoVo MDR multidrug resistant colon carcinoma subline; assay: MTT cytotoxicity assay, cross-resistance profile; format: cell-based, human
Description: as §1, §2, §3
A LoVo cell line retaining a multidrug resistance phenotype was also considered (LoVo MDR). Cross-resistance profiles were evaluated by means of the resistance factor (RF), which is defined as the ratio between the IC50 value for the resistant cells and that arising from the sensitive cells (Table 2).
In Table 2 are also reported the results obtained in a multidrug resistant (MDR) colon carcinoma subline, LoVo MDR, in which the resistance to doxorubicin, a drug belonging to the MDR spectrum, is associated with an overexpression of multi-specific drug transporters, such as the 170 kDa P-glycoprotein (P-gp) (Wersinger, C., et al., Amino Acids 2000, 19, 667-685). It is well known that acquired MDR, whereby cells become refractory to multiple drugs, poses most important challenge to the success of anticancer chemotherapy.

[2] = tested on: LoVo-OXP colorectal adenocarcinoma xenografts; assay: In vivo anticancer activity, oxaliplatin-resistant colorectal xenograft; set-up: species or system BALB/c nu/nu mice
Procedure: LoVo and LoVo-OXP tumor xenografts were established in 6-week-old BALB/c nu/nu mice by injecting 1×10^7 tumor cells subcutaneously (100 μL in serum free medium) on the left dorsal flank. After 24 h from tumor implantation, mice were randomly divided into five groups (6 animals per group, 8 controls). Chemotherapy was delayed until the tumor became palpable (day 14). From day 14, 1 was dosed daily at 3 mg/kg ip whereas OXP was dosed daily at 2 mg/kg ip. Measurements of body weights and tumor volumes were recorded every 2 days until the experimental endpoint. The long axis (L) and the short axis (S) were measured with caliper, and the tumor volume (V) was calculated using the following equation: V=S×S×L/2. At day 30, animals were sacrificed, and the inhibition of tumor growth was determined by comparing the volume of the control group and the treatment group expressed as % referred to the control animals.
All the values are the means±S.D. of not less than three measurements. Multiple comparisons were made by Tukey-Kramer test (**p<0.01; *p<0.05).

O=C1[O][Pt-2]2([NH2+]C3CCCC[C@H]3[NH2+]2)[O]C1=O (stereo partly drawn) [oxaliplatin, [(1R,2R)-cyclohexane-1,2diamine](ethanedioato)platinum(II), reference compound]
IC50 (SW480): 4.2 ± 0.75 µM | IC50 (MCF-7): 3.36 ± 1.69 µM | IC50 (HCT-15): 1.25 ± 1.05 µM | IC50 (DLD-1): 5.81 ± 1.93 µM | IC50 (A431): 3.69 ± 1.03 µM | IC50 (A375): 2.37 ± 1.31 µM | R.F. (resistance factor) ([1]; IC50 LoVo-MDR / IC50 LoVo): 1.3 | IC50 ([1]; LoVo-MDR, 72 h, MTT): 1.36 ± 0.81 µM | antitumor activity, times lower than that exerted by 1 ([2]; LoVo-OXP models): 2.4 | tumor growth inhibition ([2]; LoVo-OXP xenograft, daily ip day 14 to day 30, 1 at 3 mg/kg, OXP at 2 mg/kg, tumor volume at day 30): 24%
